According to patent publication US20080085886A1, “Aza-benzofuranyl compounds and methods of use” (GENENTECH, INC., priority 2006, published 2008):
pEC50: −log10 of the molar value.

What follows are compounds tested on cellular p-ERK in HCT116 human colorectal carcinoma / A375 human malignant melanoma cell lines (assay: Phospho-ERK cell-based assay (ELISA), Example 4). Settings: in either one of the cell lines (HCT116, A375), 2 h or 24 h exposure.
Procedure: Example 4 Phospho-ERK Cell-Based Assay
Compounds are tested in a cell-based phospho-ERK ELISA using the following cell lines:
HCT116 human colorectal carcinoma (ATCC)
A375 human malignant melanoma (ATCC)
Both cell lines are maintained in DMEM/F12 (1:1) media (Gibco) supplemented with 10% FCS at 37° C. in a 5% CO2 humidified incubator.
Cells are seeded in 96-well plates at 2,000 cells/well and after 24 h they are exposed to different concentrations of compounds in 0.83% DMSO. Cells are grown for a further 2 h or 24 h, fixed with formaldehyde (2% final) and permeabilised with methanol. Following blocking with TBST-3% BSA, fixed cells are incubated with primary antibody (anti-phospho ERK from rabbit) over-night at 4° C. Cells are incubated with Propidium Iodide (DNA fluorescent dye) and detection of cellular p-ERK is performed using an anti-rabbit secondary antibody conjugated to the fluorescent Alexa Fluor 488 dye (Molecular probes). The fluorescence is analysed using the Acumen Explorer (TTP Labtech), a laser-scanning microplate cytometer, and the Alexa Fluor 488 signal is normalised to the PI signal (proportional to cell number).
The EC50 is defined as the concentration at which a given compound achieves a signal half way between the baseline and the maximum response. EC50 values are calculated using the XLfit software package (version 2.0.5).

pEC50, > 5.00:
CN(OCCO)C(=O)c1oc2ccncc2c1Nc1ccc(I)cc1F [Example 23, 3-(2-Fluoro-4-iodo-phenylamino)-furo[3,2-c]pyridine-2-carboxylic acid (2-hydroxy-ethoxyl)-methyl-amide]
O=C(NOCCO)c1oc2ccncc2c1Nc1ccc(Br)cc1Cl [Example 26, 3-(4-Bromo-2-chloro-phenylamino)-furo[3,2-c]pyridine-2-carboxylic acid (2-hydroxy-ethoxy)-amide]
CONC(=O)c1oc2ccncc2c1Nc1ccc(I)cc1F [Example 29, 3-(2-Fluoro-4-iodo-phenylamino)-furo[3,2-c]pyridine-2-carboxylic acid methoxy-amide]
CC(C)CONC(=O)c1oc2ccncc2c1Nc1ccc(I)cc1F [Example 42, (2-Fluoro-4-iodo-phenylamino)-N-isobutoxyfuro[3,2-c]pyridine-2-carboxamide]
CC(C)ONC(=O)c1oc2ccncc2c1Nc1ccc(I)cc1F [Example 43, (2-Fluoro-4-iodo-phenylamino)-N-isopropoxyfuro[3,2-c]pyridine-2-carboxamide]
O=C(NOCc1ccccc1)c1oc2ccncc2c1Nc1ccc(I)cc1F [Example 44, (2-Fluoro-4-iodo-phenylamino)-N-benzyloxyfuro[3,2-c]pyridine-2-carboxamide]
O=C(NOCCCO)c1oc2ccncc2c1Nc1ccc(I)cc1F [Example 45, (2-Fluoro-4-iodo-phenyl amino)-N-(3-hydroxypropoxy)furo[3,2-c]pyridine-2-carboxamide]
O=C(NCCCONC(=O)c1oc2ccncc2c1Nc1ccc(I)cc1F)c1ccccn1 [Example 46]
O=C(NCCCONC(=O)c1oc2ccncc2c1Nc1ccc(I)cc1F)c1cccnc1 [Example 47]
O=C(NCCCONC(=O)c1oc2ccncc2c1Nc1ccc(I)cc1F)c1ccncc1 [Example 48, (2-Fluoro-4-iodo-phenyl amino)-N-[3-(isonicotinamide)propoxy] furo[3,2-c]pyridine-2-carboxamide]
CCONC(=O)c1oc2ccncc2c1Nc1ccc(I)cc1F [Example 50, (2-Fluoro-4-iodo-phenyl amino)-N-ethoxyfuro[3,2-c]pyridine-2-carboxamide]
CC(O)CONC(=O)c1oc2ccncc2c1Nc1ccc(I)cc1F (stereo not drawn) [Example 55, 3-(2-Fluoro-4-iodo-phenylamino)-furo[3,2-c]pyridine-2-carboxylic acid (2-hydroxy-propoxy)-amide]
O=C(c1oc2ccncc2c1Nc1ccc(I)cc1F)N1CC[C@@H](O)C1 [Example 59, (3-(2-fluoro-4-iodophenyl amino)furo[3,2-c]pyridin-2-yl)((R)-3-hydroxypyrrolidin-1-yl)methanone]
O=C(c1oc2ccncc2c1Nc1ccc(I)cc1F)N1C[C@H](O)[C@@H](O)C1 [Example 60, (3-(2-fluoro-4-iodophenyl amino)furo[3,2-c]pyridin-2-yl)((3S,4S)-3,4-dihydroxypyrrolidin-1-yl)methanone]
O=C(NCCCO)c1oc2ccncc2c1Nc1ccc(I)cc1F [Example 61, 3-(2-fluoro-4-iodophenylamino)-N-(3-hydroxypropyl)furo[3,2-c]pyridine-2-carboxamide]
O=C(NC(CO)CO)c1oc2ccncc2c1Nc1ccc(I)cc1F [Example 68, 3-(2-fluoro-4-iodophenylamino)-N-(1,3-dihydroxypropan-2-yl)furo[3,2-c]pyridine-2-carboxamide]
O=C(c1oc2ccncc2c1Nc1ccc(I)cc1F)N1CC[C@H](O)C1 [Example 70, (3-(2-fluoro-4-iodophenylamino)furo[3,2-c]pyridin-2-yl)((S)-3-hydroxypyrrolidin-1-yl)methanone]
O=C(c1oc2ccncc2c1Nc1ccc(I)cc1F)N1C[C@@H](O)[C@@H](O)C1 [Example 73, (3-(2-fluoro-4-iodophenylamino)furo[3,2-c]pyridin-2-yl)((3S,4R)-3,4-dihydroxypyrrolidin-1-yl)methanone]
N[C@@H]1CCN(C(=O)c2oc3ccncc3c2Nc2ccc(I)cc2F)C1 [Example 74, (3-(2-fluoro-4-iodophenylamino)furo[3,2-c]pyridin-2-yl)((R)-3-aminopyrrolidin-1-yl)methanone]
C[C@@H](CO)NC(=O)c1oc2ccncc2c1Nc1ccc(I)cc1F [Example 76, 3-(2-fluoro-4-iodophenylamino)-N-((S)-1-hydroxypropan-2-yl)furo[3,2-c]pyridine-2-carboxamide]
O=C(c1oc2ccncc2c1Nc1ccc(I)cc1F)N1CCC[C@H]1CO [Example 79, (3-(2-fluoro-4-iodophenylamino)furo[3,2-c]pyridin-2-yl)((S)-2-(hydroxymethyl)pyrrolidin-1-yl)methanone]
CN(CCO)C(=O)c1oc2ccncc2c1Nc1ccc(I)cc1F [Example 81, 3-(2-fluoro-4-iodophenylamino)-N-(2-hydroxyethyl)-N-methylfuro[3,2-c]pyridine-2-carboxamide]
O=C(NCCO)c1oc2ccncc2c1Nc1ccc(I)cc1F [Example 82, 3-(2-fluoro-4-iodophenylamino)-N-(2-hydroxyethyl)furo[3,2-c]pyridine-2-carboxamide]
CN(C)C(=O)c1oc2ccncc2c1Nc1ccc(I)cc1F [Example 83, 3-(2-fluoro-4-iodophenylamino)-N,N-dimethylfuro[3,2-c]pyridine-2-carboxamide]
O=C(NCC(O)CO)c1oc2ccncc2c1Nc1ccc(I)cc1F (stereo not drawn) [Example 84, 3-(2-fluoro-4-iodophenylamino)-N-(2,3-dihydroxypropyl)furo[3,2-c]pyridine-2-carboxamide]
O=C(c1oc2ccncc2c1Nc1ccc(I)cc1F)N1CCC[C@@H]1CO [Example 87, (3-(2-fluoro-4-iodophenylamino)furo[3,2-c]pyridin-2-yl)((R)-2-(hydroxylmethyl)pyrrolidin-1-yl)methanone]
CNC(=O)c1oc2ccncc2c1Nc1ccc(I)cc1F [Example 91, 3-(2-fluoro-4-iodophenylamino)-N-methylfuro[3,2-c]pyridine-2-carboxamide]
O=C(NCC[C@H](O)CO)c1oc2ccncc2c1Nc1ccc(I)cc1F [Example 95, 3-(2-fluoro-4-iodophenylamino)-N-((S)-3,4-dihydroxybutyl)furo[3,2-c]pyridine-2-carboxamide]
CC(C)(C)ONC(=O)c1oc2ccncc2c1Nc1ccc(I)cc1F [Example 99, (2-Fluoro-4-iodo-phenylamino)-N-tert-butoxyfuro[3,2-c]pyridine-2-carboxamide]
O=C(NOc1ccccc1)c1oc2ccncc2c1Nc1ccc(I)cc1F [Example 111, 3-(2-Fluoro-4-iodo-phenylamino)-N-phenyloxyfuro[3,2-c]pyridine-2-carboxamide]
CC(C)(CO)ONC(=O)c1oc2ccncc2c1Nc1ccc(I)cc1F [Example 113, N-(1-hydroxy-2-methylpropan-2-yloxy)-3-(2-Fluoro-4-iodo-phenylamino)furo[3,2-c]pyridine-2-carboxamide]
C[C@@H](O)CONC(=O)c1oc2ccncc2c1Nc1ccc(I)cc1F [Example 117, 3-(2-Fluoro-4-iodo-phenylamino)-furo[3,2-c]pyridine-2-carboxylic acid ((R)-2-hydroxy-propoxy)-amide]
C[C@H](O)CONC(=O)c1oc2ccncc2c1Nc1ccc(I)cc1F [Example 118, 3-(2-Fluoro-4-iodo-phenylamino)-furo[3,2-c]pyridine-2-carboxylic acid ((S)-2-hydroxy-propoxy)-amide]
CC1(O)CCN(C(=O)c2oc3ccncc3c2Nc2ccc(I)cc2F)C1 (stereo not drawn) [Example 120, (3-(2-fluoro-4-iodophenylamino)furo[3,2-c]pyridine-2-yl)(3-hydroxy-3-methylpyrrolidin-1-yl)methanone]
O=C(c1oc2ccncc2c1Nc1ccc(I)cc1F)N1CC(O)C1 [Example 122, (3-(2-fluoro-4-iodophenylamino)furo[3,2-c]pyridin-2-yl)(3-hydroxyazetidin-1-yl)methanone]
O=C(c1oc2ccncc2c1Nc1ccc(I)cc1F)N1CC[C@@H](O)[C@H]1CO [Example 123]
O=C(c1oc2ccncc2c1Nc1ccc(I)cc1F)N1C[C@@H](O)[C@H](O)[C@H]1CO [Example 124, (3-(2-fluoro-4-iodophenylamino)furo[3,2-c]pyridin-2-yl)((2R,3R,4R)-3,4-dihydroxy-2-(hydroxymethyl)pyrrolidin-1-yl)methanone]
O=C(c1oc2ccncc2c1Nc1ccc(I)cc1F)N1C[C@H](O)C[C@@H]1CO [Example 126, (3-(2-fluoro-4-iodophenylamino)furo[3,2-c]pyridin-2-yl)((2R,4R)-4-hydroxy-2-(hydroxymethyl)pyrrolidin-1-yl)methanone]
O=C(c1oc2ccncc2c1Nc1ccc(I)cc1F)N1C[C@H](O)C[C@H]1CO [Example 127, (3-(2-fluoro-4-iodophenylamino)furo[3,2-c]pyridin-2-yl)((2S,4R)-4-hydroxy-2-(hydroxymethyl)pyrrolidin-1-yl)methanone]
